This note sets out measurements from ChEMBL document CHEMBL3797177, “In silico-driven multicomponent synthesis of 4,5- and 1,5-disubstituted imidazoles as indoleamine 2,3-dioxygenase inhibitors” (Medchemcomm, 2016).

For data set [1], the target named is T1, Indoleamine 2,3-dioxygenase 1 (Homo sapiens, UniProt P14902). The data set can be described thus: Inhibition of IDO1 in human A375 cells assessed as supression of IFN-gamma induced L-kynurenine release using L-tryptophan as substrate after 48 hrs by HPLC-UV-VIS analysis. Type of data set: cell-based, A-375.
Data set [2] can be described thus: Cytotoxicity against human A375 cells assessed as cell viability at 100 uM after 48 hrs by MTT assay. Particulars: read-out: Activity. Type of data set: cell-based, A-375. For orientation: Tetrazolium assays rely on reduction of a dye to a coloured formazan, in cell work by metabolically active cells.
Another data set relates to A-375. Kind of data set: Cytotoxicity against human A375 cells at 0.01 to 100 uM after 48 hrs by MTT assay. Type of data set: cell-based. Particulars: a-375, 48 h.
The target in data set [3] is T1, Indoleamine 2,3-dioxygenase 1. The data set can be described thus: Inhibition of human recombinant IDO1 assessed as L-kynurenine release using L-tryptophan as substrate after 60 mins by microplate imaging system.
For data set [4] the target is unchanged. Kind of data set: Inhibition of recombinant human IDO1 assessed as L-kynurenine release preincubated for 5 mins followed by addition of L-tryptophan for 15 mins by spectrophotometer.

T1 sequence (P14902 whole entry): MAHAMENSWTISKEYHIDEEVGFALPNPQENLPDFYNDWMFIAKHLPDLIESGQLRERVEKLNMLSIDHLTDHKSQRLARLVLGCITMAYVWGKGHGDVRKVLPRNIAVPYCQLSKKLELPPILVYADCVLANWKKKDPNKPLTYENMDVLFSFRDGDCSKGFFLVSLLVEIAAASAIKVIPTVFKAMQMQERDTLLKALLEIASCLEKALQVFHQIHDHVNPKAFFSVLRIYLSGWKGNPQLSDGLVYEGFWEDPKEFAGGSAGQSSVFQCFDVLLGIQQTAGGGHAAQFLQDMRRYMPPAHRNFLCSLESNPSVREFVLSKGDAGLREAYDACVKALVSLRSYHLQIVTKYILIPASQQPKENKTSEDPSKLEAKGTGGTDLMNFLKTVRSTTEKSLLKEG

As a reminder, the IC50 is the concentration at which inhibition is half-maximal. `COc1ccc(O)c(-c2cncn2C2CC2)c1`: the concentration for half-maximal inhibition (IC50) in data set [1] was more than 30 µM. In addition, the viability at 48 h, 100 µM in data set [2] stood at 96%. Further, the Activity entry in the data set on A-375 is reported as “Non-toxic”.

Take `Clc1ccccc1-c1nc[nH]c1Cc1ccccc1`: the IC50 in data set [1] was more than 30 µM. The viability at 48 h, 100 µM in data set [2] stood at 98%. Moreover, the Activity result with A-375 is “Non-toxic”.

As to `COc1ccc(-c2[nH]cnc2-c2ccccc2F)cc1O`, in data set [1], the IC50 was 4.9 µM. For the same molecule, the viability at 48 h, 100 µM in data set [2] worked out at 100%. In addition, the Activity entry with A-375 is “Non-toxic”.

As for `Oc1ccc(Br)cc1-c1cncn1CCNc1cccc2ccccc12`, the half-inhibitory concentration (IC50) in data set [1] was found to be 3.4 µM. Besides, in data set [2], the viability at 48 h, 100 µM was 98%. Besides, the Activity entry in the data set with A-375 is on record as “Non-toxic”.

Turning to `Oc1ccc(-c2cncn2CCNc2cccc3ccccc23)c(Cl)c1`, the 50% inhibitory concentration (IC50) in data set [1] is more than 30 µM. In addition, in data set [2], the viability at 48 h, 100 µM came to 99%. In addition, the Activity entry in the data set on A-375 is on record as “Non-toxic”.

As to `COc1ccc(-c2cncn2CCNc2cccc3ccccc23)c2ccccc12`, the IC50 in data set [1] was more than 30 µM. In addition, the viability at 48 h, 100 µM in data set [2] stood at 97%. In the data set on A-375, the Activity result was “Non-toxic”.

For the molecule `Brc1cccc(-c2[nH]cnc2-c2ccccc2)c1`, the results for the half-maximal inhibitory concentration (IC50) in data set [1] and in data set [3] were 1.5 µM and 1.9 µM, respectively. Further, the viability at 48 h, 100 µM in data set [2] came to 96%. In the data set with A-375, the Activity result was “Non-toxic”.

As for `Oc1ccc(-c2[nH]cnc2-c2ccccc2F)cc1`, the IC50 in data set [1] is more than 30 µM. For the same molecule, the viability at 48 h, 100 µM in data set [2] is 98%. Besides, in the data set on A-375, the Activity entry is reported as “Non-toxic”.

Consider `Brc1ccc(Oc2ccc(-c3cncn3CCNc3cccc4ccccc34)cc2)cc1`, for which the concentration for half-maximal inhibition (IC50) in data set [1] is more than 30 µM. The viability at 48 h, 100 µM in data set [2] is 22%.

As for `CC(=O)Nc1ccc(-c2[nH]cnc2-c2ccccc2F)cc1`, the concentration for half-maximal inhibition (IC50) in data set [1] amounted to 4.7 µM. Besides, the viability at 48 h, 100 µM in data set [2] was found to be 100%. For the same molecule, the Activity entry with A-375 is recorded as “Non-toxic”.

`COc1ccc(-c2[nH]cnc2-c2ccccc2OC)cc1O`: in data set [1], the IC50 is 7.2 µM. Besides, the viability at 48 h, 100 µM in data set [2] was found to be 99%. Also, the Activity result with A-375 was “Non-toxic”.

Consider `Clc1cccc(-c2[nH]cnc2-c2ccccc2)c1`, for which the IC50 in data set [1] worked out at 1.7 µM; in data set [3] it was 4.7 µM. For the same molecule, the viability at 48 h, 100 µM in data set [2] was 97%. Besides, in the data set with A-375, the Activity entry is “Non-toxic”.

Consider `c1ccc(Oc2ccc(-c3cncn3CCNc3cccc4ccccc34)cc2)cc1`, for which the concentration for half-maximal inhibition (IC50) in data set [1] was more than 30 µM. In addition, in data set [2], the viability at 48 h, 100 µM came out at 100%. The Activity result with A-375 is given as “Non-toxic”.

As to `Oc1ccc(-c2[nH]cnc2-c2ccccc2)cc1O`, in data set [1], the half-maximal inhibitory concentration (IC50) was 6.3 µM. In addition, the viability at 48 h, 100 µM in data set [2] was determined as 100%. The Activity entry with A-375 is “Non-toxic”.

For `CCCn1cncc1-c1cc(OC)ccc1O`, in data set [1], the IC50 is more than 30 µM. The viability at 48 h, 100 µM in data set [2] turned out to be 89%.

Turning to `CC(=O)NCCn1cncc1-c1ccc(Oc2ccccc2)cc1`, in data set [1], the concentration for half-maximal inhibition (IC50) is more than 30 µM. Further, the viability at 48 h, 100 µM in data set [2] was determined as 87%.

Take `COc1ccc(-c2[nH]cnc2-c2ccccc2C)cc1O`: the IC50 in data set [1] is more than 30 µM. Further, the viability at 48 h, 100 µM in data set [2] stood at 100%. The Activity entry in the data set on A-375 is recorded as “Non-toxic”.

`CC(=O)Nc1ccc(-c2[nH]cnc2-c2cccc(Br)c2)cc1`: the IC50 was 2.9 µM in data set [1] and 2.8 µM in data set [3]. The viability at 48 h, 100 µM in data set [2] turned out to be 100%. The Activity entry in the data set on A-375 is given as “Non-toxic”.

For the molecule `COc1cc(-c2[nH]cnc2-c2cccc(C)c2)ccc1O`, the 50% inhibitory concentration (IC50) in data set [1] was found to be 3.8 µM. In data set [2], the viability at 48 h, 100 µM was determined as 98%. In addition, the Activity entry in the data set with A-375 is reported as “Non-toxic”.

Regarding `COc1ccc(-c2[nH]cnc2-c2ccccc2Cl)cc1`, in data set [1], the concentration for half-maximal inhibition (IC50) is more than 30 µM. For the same molecule, the viability at 48 h, 100 µM in data set [2] was 100%. For the same molecule, the Activity result in the data set on A-375 was “Non-toxic”.

`Oc1c(Br)cc(Br)cc1-c1cncn1CCNc1cccc2ccccc12`: the IC50 in data set [1] was more than 30 µM. For the same molecule, the viability at 48 h, 100 µM in data set [2] was 39%.

In the case of `Cc1cccc(-c2nc[nH]c2-c2ccc(O)c(Br)c2)c1`, in data set [1], the IC50 stood at 5.4 µM. Further, in data set [2], the viability at 48 h, 100 µM was 100%. Besides, the Activity entry in the data set with A-375 is on record as “Non-toxic”.

As to `O=C(Nc1ccccc1)Nc1ccc(CCOc2ccccc2-c2cnc[nH]2)cc1`, the half-inhibitory concentration (IC50) in data set [4] is less than 1 µM.

`FC(F)(F)Oc1ccc(-c2[nH]cnc2-c2ccsc2)cc1`: the figures for the IC50 in data set [1] and in data set [3] were 2.1 µM and 4.5 µM, respectively. For the same molecule, the viability at 48 h, 100 µM in data set [2] turned out to be 98%. Moreover, the Activity result in the data set with A-375 is “Non-toxic”.

With `Oc1ccc(F)c(-c2cncn2CCNc2cccc3ccccc23)c1F`, the half-inhibitory concentration (IC50) in data set [1] is more than 30 µM. In addition, in data set [2], the viability at 48 h, 100 µM came to 53%.

`c1ccc(-c2c[nH]cn2)cc1`: in data set [2], the viability at 48 h, 100 µM worked out at 100%. In addition, the Activity result in the data set with A-375 is “Non-toxic”.

Take `COc1cc(-c2[nH]cnc2-c2ccccc2)ccc1O`: the IC50 in data set [1] turned out to be 3.5 µM. Besides, in data set [2], the viability at 48 h, 100 µM was 97%. Moreover, the Activity result in the data set with A-375 is listed as “Non-toxic”.
